US8614327B2 (Vertex Pharmaceuticals Incorporated, priority 2004, dated 2013)

Target: T1, ΔF508-CFTR (Homo sapiens, UniProt P13569, DEL508-508)
T1 construct: expressed in transfected cells
Test: Membrane potential optical (FRET/VIPR) assay, identification of potentiator compounds
Type: cell-based
Conditions: Table 3, assay not given; for % Activity: relative efficacy
Summary of the method: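 Double-addition potentiator screen: compound delivered in gluconate-substituted Cl^--free medium, membrane potential followed via CC2-DMPE/DiSBAC2(3) FRET on VIPR. Cells were ΔF508-CFTR-expressing NIH3T3 mouse fibroblasts, held 2 h at 37° C. then 24 h at 27° C. before assay.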

T1 sequence (P13569 with tags, fused parts or gaps DEL508-508): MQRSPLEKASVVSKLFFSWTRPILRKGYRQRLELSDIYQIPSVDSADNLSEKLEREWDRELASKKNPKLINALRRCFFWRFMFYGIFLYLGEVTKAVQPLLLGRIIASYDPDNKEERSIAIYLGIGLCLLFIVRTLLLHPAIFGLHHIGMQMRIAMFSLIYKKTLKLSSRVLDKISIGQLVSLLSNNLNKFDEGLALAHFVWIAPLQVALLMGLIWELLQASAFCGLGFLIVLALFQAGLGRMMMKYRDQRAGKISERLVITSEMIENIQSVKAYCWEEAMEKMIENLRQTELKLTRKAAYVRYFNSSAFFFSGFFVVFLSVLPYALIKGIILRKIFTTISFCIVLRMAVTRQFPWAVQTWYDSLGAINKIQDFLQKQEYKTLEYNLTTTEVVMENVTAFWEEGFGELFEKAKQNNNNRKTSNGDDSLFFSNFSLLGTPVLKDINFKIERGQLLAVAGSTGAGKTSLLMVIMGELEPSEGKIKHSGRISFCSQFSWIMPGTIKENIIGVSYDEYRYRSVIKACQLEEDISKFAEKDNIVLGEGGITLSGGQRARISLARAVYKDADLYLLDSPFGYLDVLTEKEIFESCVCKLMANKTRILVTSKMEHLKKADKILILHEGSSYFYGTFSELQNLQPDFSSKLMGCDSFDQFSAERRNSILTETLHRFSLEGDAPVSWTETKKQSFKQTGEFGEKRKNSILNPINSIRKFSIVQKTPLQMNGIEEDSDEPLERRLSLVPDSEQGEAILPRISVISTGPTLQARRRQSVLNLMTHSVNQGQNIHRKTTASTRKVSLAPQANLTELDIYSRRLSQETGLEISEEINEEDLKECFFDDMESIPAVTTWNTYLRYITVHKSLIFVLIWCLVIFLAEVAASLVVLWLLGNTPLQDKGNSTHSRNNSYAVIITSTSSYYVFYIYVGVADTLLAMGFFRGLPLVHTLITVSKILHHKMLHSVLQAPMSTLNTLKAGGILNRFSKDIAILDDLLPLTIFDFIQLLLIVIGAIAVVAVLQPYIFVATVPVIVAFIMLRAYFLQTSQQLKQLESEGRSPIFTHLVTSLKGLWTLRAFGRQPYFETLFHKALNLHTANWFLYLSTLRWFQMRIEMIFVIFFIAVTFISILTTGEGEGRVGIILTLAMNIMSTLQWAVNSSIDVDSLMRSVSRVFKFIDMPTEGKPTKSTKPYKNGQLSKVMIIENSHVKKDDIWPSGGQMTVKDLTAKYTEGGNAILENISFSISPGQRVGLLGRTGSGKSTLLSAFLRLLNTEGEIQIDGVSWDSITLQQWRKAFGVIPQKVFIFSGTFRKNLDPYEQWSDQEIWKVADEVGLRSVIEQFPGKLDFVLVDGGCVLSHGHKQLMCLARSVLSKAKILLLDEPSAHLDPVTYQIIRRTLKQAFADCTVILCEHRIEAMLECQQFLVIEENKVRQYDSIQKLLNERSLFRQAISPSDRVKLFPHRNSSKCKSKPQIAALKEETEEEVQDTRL

SMILES | EC50 | % Activity
CC(CO)(CO)c1ccc(NC(=O)c2c[nH]c3ccc(F)cc3c2=O)cc1 [Compound 627, 6-fluoro-N-[4-[2-hydroxy-1-(hydroxymethyl)-1-methyl-ethyl]phenyl]-4-oxo-1H-quinoline-3-carboxamide] | < 10 µM | + (<25%)
O=C(Nc1ccc(OC(F)(F)F)cc1Cl)c1c[nH]c2ccccc2c1=O [Compound 628, N-[2-chloro-4-(trifluoromethoxy)phenyl]-4-oxo-1H-quinoline-3-carboxamide] | < 10 µM | ++ (between 25% to 100%)
CC(C)(C)OC(=O)[C@@H]1CCCN1c1ccc(NC(=O)c2c[nH]c3ccccc3c2=O)c(C(F)(F)F)c1 [Compound 629, (S)-tert-butyl 1-(4-(4-oxo-1,4-dihydroquinoline-3-carboxamido)-3-(trifluoromethyl)phenyl)pyrrolidine-2-carboxylate] | < 10 µM | ++ (between 25% to 100%)
O=C(Nc1cc(C(F)(F)F)ccc1C(F)(F)F)c1c[nH]c2ccccc2c1=O [Compound 630, N-[2,5-bis(trifluoromethyl)phenyl]-4-oxo-1H-quinoline-3-carboxamide] | < 10 µM | ++ (between 25% to 100%)
COC(=O)[C@]1(C)CCCN1c1ccc(NC(=O)c2c[nH]c3ccccc3c2=O)c(C(F)(F)F)c1 [Compound 631, (S)-methyl 2-methyl-1-(4-(4-oxo-1,4-dihydroquinoline-3-carboxamido)-3-(trifluoromethyl)phenyl)pyrrolidine-2-carboxylate] | < 10 µM | +++ (>100%)
CC(C)(C)c1cc2cc[nH]c2cc1NC(=O)c1c[nH]c2cc(OC(F)(F)F)ccc2c1=O [Compound 632, 4-oxo-N-(5-tert-butyl-1H-indol-6-yl)-7-(trifluoromethoxy)-1H-quinoline-3-carboxamide] | < 10 µM | ++ (between 25% to 100%)
CC(C)(C)c1ccc(NC(=O)c2c[nH]c3cccc(O)c3c2=O)cc1O [Compound 633, 5-hydroxy-N-(3-hydroxy-4-tert-butyl-phenyl)-4-oxo-1H-quinoline-3-carboxamide] | < 10 µM | ++ (between 25% to 100%)
O=C(Nc1ccc(N2CCC[C@H]2CO)cc1C(F)(F)F)c1c[nH]c2ccccc2c1=O [Compound 634, (S)-N-(4-(2-(hydroxymethyl)pyrrolidin-1-yl)-2-(trifluoromethyl)phenyl)-4-oxo-1,4-dihydroquinoline-3-carboxamide] | < 10 µM | ++ (between 25% to 100%)
O=C(Nc1ccc(C(F)(F)F)cc1Cl)c1c[nH]c2cccc(O)c2c1=O [Compound 635, N-[2-chloro-4-(trifluoromethyl)phenyl]-5-hydroxy-4-oxo-1H-quinoline-3-carboxamide] | < 10 µM | ++ (between 25% to 100%)
O=C(Nc1ccc(C(F)(F)F)cc1Cl)c1c[nH]c2ccc(F)cc2c1=O [Compound 636, N-[2-chloro-4-(trifluoromethyl)phenyl]-6-fluoro-4-oxo-1H-quinoline-3-carboxamide] | < 10 µM | + (<25%)
Cc1cccc2c(=O)c(C(=O)Nc3ccc(C(C)C)cc3C(F)(F)F)c[nH]c12 [Compound 637, N-[4-isopropyl-2-(trifluoromethyl)phenyl]-8-methyl-4-oxo-1H-quinoline-3-carboxamide] | < 10 µM | + (<25%)
CC(C)(C)c1cc(F)c(NC(=O)c2c[nH]c3c(C(F)(F)F)cccc3c2=O)cc1O [Compound 638, N-(2-fluoro-5-hydroxy-4-tert-butyl-phenyl)-4-oxo-8-(trifluoromethyl)-1H-quinoline-3-carboxamide] | < 10 µM | + (<25%)
CC(C)N1CCN(c2ccc(NC(=O)c3c[nH]c4ccccc4c3=O)c(C(F)(F)F)c2)CC1 [Compound 639, N-[4-(4-isopropylpiperazin-1-yl)-2-(trifluoromethyl)phenyl]-4-oxo-1H-quinoline-3-carboxamide] | < 10 µM | ++ (between 25% to 100%)
Cc1ccc2c(=O)c(C(=O)Nc3cc(O)c(C(C)(C)C)cc3C(C)(C)C)c[nH]c2c1 [Compound 640, N-(5-hydroxy-2,4-ditert-butyl-phenyl)-7-methyl-4-oxo-1H-quinoline-3-carboxamide] | < 10 µM | +++ (>100%)
CCOc1cccc2c(=O)c(C(=O)Nc3cc4[nH]ccc4cc3C(C)(C)C)c[nH]c12 [Compound 641, 8-ethoxy-4-oxo-N-(5-tert-butyl-1H-indol-6-yl)-1H-quinoline-3-carboxamide] | 10 to 25 µM | + (<25%)
COc1ccc2c(=O)c(C(=O)Nc3ccc(N4CCC[C@@H]4C)cc3C(F)(F)F)c[nH]c2c1 [Compound 642, (S)-7-methoxy-N-(4-(2-methylpyrrolidin-1-yl)-2-(trifluoromethyl)phenyl)-4-oxo-1,4-dihydroquinoline-3-carboxamide] | < 10 µM | ++ (between 25% to 100%)
Cc1cccc2[nH]cc(C(=O)Nc3ccc(N4CCCC(C)C4)cc3C(F)(F)F)c(=O)c12 (stereo not drawn) [Compound 643, 5-methyl-N-[4-(3-methyl-1-piperidyl)-2-(trifluoromethyl)phenyl]-4-oxo-1H-quinoline-3-carboxamide] | < 10 µM | ++ (between 25% to 100%)
Cc1cccc2c(=O)c(C(=O)Nc3cc4[nH]ccc4cc3C(C)(C)C)c[nH]c12 [Compound 644, 8-methyl-4-oxo-N-(5-tert-butyl-1H-indol-6-yl)-1H-quinoline-3-carboxamide] | < 10 µM | + (<25%)
CC(C)(C)c1ccc(NC(=O)c2c[nH]c3ccccc3c2=O)cc1F [Compound 645, N-(3-fluoro-4-tert-butyl-phenyl)-4-oxo-1H-quinoline-3-carboxamide] | < 10 µM | ++ (between 25% to 100%)
CC(C)(C)c1cc2cc[nH]c2cc1NC(=O)c1c[nH]c2cc(F)c(F)cc2c1=O [Compound 646, 6,7-difluoro-4-oxo-N-(5-tert-butyl-1H-indol-6-yl)-1H-quinoline-3-carboxamide] | < 10 µM | ++ (between 25% to 100%)
Cc1cc(C2CCCCC2)ccc1NC(=O)c1c[nH]c2ccccc2c1=O [Compound 647, N-(4-cyclohexyl-2-methyl-phenyl)-4-oxo-1H-quinoline-3-carboxamide] | < 10 µM | ++ (between 25% to 100%)
CCc1cc(C(C)(C)C)c(O)cc1NC(=O)c1c[nH]c2ccc(F)cc2c1=O [Compound 649, N-(2-ethyl-5-hydroxy-4-tert-butyl-phenyl)-6-fluoro-4-oxo-1H-quinoline-3-carboxamide] | < 10 µM | ++ (between 25% to 100%)

More lines, now with the values ahead:

EC50 | % Activity | SMILES
< 10 µM | ++ (between 25% to 100%) | O=C(Nc1ccc(C(F)(F)F)c(O)c1)c1c[nH]c2ccc(F)cc2c1=O [Compound 650, 6-fluoro-N-[3-hydroxy-4-(trifluoromethyl)phenyl]-4-oxo-1H-quinoline-3-carboxamide]
< 10 µM | ++ (between 25% to 100%) | O=C(Nc1ccc(C2CCCCC2)c(O)c1)c1c[nH]c2ccc(F)cc2c1=O [Compound 651, N-(4-cyclohexyl-3-hydroxy-phenyl)-6-fluoro-4-oxo-1H-quinoline-3-carboxamide]
< 10 µM | ++ (between 25% to 100%) | CC(C)(C)c1cc(C(C)(C)C)c(NC(=O)c2c[nH]c3cc(O)ccc3c2=O)cc1O [Compound 652, 7-hydroxy-N-(5-hydroxy-2,4-ditert-butyl-phenyl)-4-oxo-1H-quinoline-3-carboxamide]
< 10 µM | ++ (between 25% to 100%) | O=C(Nc1cc(OCc2ccccc2)c(C2CCCCC2)cc1C(F)(F)F)c1c[nH]c2ccccc2c1=O [Compound 654, N-[5-benzyloxy-4-cyclohexyl-2-(trifluoromethyl)phenyl]-4-oxo-1H-quinoline-3-carboxamide]
< 10 µM | ++ (between 25% to 100%) | O=C(Nc1ccc(N2CC[C@H](O)C2)cc1C(F)(F)F)c1c[nH]c2ccccc2c1=O [Compound 655, (S)-N-(4-(3-hydroxypyrrolidin-1-yl)-2-(trifluoromethyl)phenyl)-4-oxo-1,4-dihydroquinoline-3-carboxamide]
< 10 µM | ++ (between 25% to 100%) | CC(C)(C)c1cc2cc[nH]c2cc1NC(=O)c1c[nH]c2cccc(F)c2c1=O [Compound 656, 5-fluoro-4-oxo-N-(5-tert-butyl-1H-indol-6-yl)-1H-quinoline-3-carboxamide]
< 10 µM | ++ (between 25% to 100%) | CC(C)c1ccc(NC(=O)c2c[nH]c3ccc(Cl)cc3c2=O)c(C(F)(F)F)c1 [Compound 657, 6-chloro-N-[4-isopropyl-2-(trifluoromethyl)phenyl]-4-oxo-1H-quinoline-3-carboxamide]
< 10 µM | ++ (between 25% to 100%) | O=C(Nc1ccc(N2CCCC2)cc1C(F)(F)F)c1c[nH]c2ccccc2c1=O [Compound 658, 4-oxo-N-[4-pyrrolidin-1-yl-2-(trifluoromethyl)phenyl]-1H-quinoline-3-carboxamide]
< 10 µM | ++ (between 25% to 100%) | CCc1cc(C(C)(C)C)c(O)cc1NC(=O)c1c[nH]c2ccccc2c1=O [Compound 659, N-(2-ethyl-5-hydroxy-4-tert-butyl-phenyl)-4-oxo-1H-quinoline-3-carboxamide]
< 10 µM | ++ (between 25% to 100%) | CCOC(=O)[C@H]1CCCN(c2ccc(NC(=O)c3c[nH]c4ccccc4c3=O)c(C(F)(F)F)c2)C1 [Compound 660, (S)-ethyl 1-(4-(4-oxo-1,4-dihydroquinoline-3-carboxamido)-3-(trifluoromethyl)phenyl)piperidine-3-carboxylate]
< 10 µM | ++ (between 25% to 100%) | Cc1cccc2[nH]cc(C(=O)Nc3cc4[nH]ccc4cc3C(F)(F)F)c(=O)c12 [Compound 661, 5-methyl-4-oxo-N-[5-(trifluoromethyl)-1H-indol-6-yl]-1H-quinoline-3-carboxamide]
